Laboratory results: PubChem BioAssay AID1963829 (Molecular Pharmacology Branch, DTP, NCI, 2024)

System: 935938-334-R-J1-PDC complex spheroid viability
Experiment: Anticancer human tumor 935938-334-R-J1-PDC patient-derived small intestine adenocarcinoma cell line growth inhibition [POLQ]
Details: for IC50: curve of first compound; for viability, T/C: stronger effect = lower value
Procedure: Multicellular complex tumor spheroid response to Polymerase (POL) inhibitors (novobiocin, ART-558, RP6685) in combination with a variety of drugs and investigational agents in selected tumor cell lines
The POL inhibitors (novobiocin, ART-558, and RP6685) were evaluated both individually and in combination with standard of care and investigational anticancer small molecules within a complex spheroid model of solid tumors. . Complex spheroids include a stromal component modeled by human endothelial cells (HUVEC) and fibroblasts modeled by human mesenchymal stem cells (MSCs). The concentration ranges selected for each drug and investigational agent were based upon clinically achievable concentrations if the clinical Cmax of the agent was known.
Compounds. The drugs and investigational agents: novobiocin (NSC847541), ART-558 (NSC835418), RP-6685 (NSC848927), peposertib (NSC802822), ceralasertib (NSC780249), elimusertib (NSC800525), camonsertib (NSC841442), AZD-1390 (NSC803789), olaparib (NSC753686), talazoparib (NSC767125), rucaparib (NSC756644), sotorasib (NSC818433), MRTX-1133 (NSC836407), SN-38 (NSC673596), topotecan (NSC609699), epotoside (NSC141540), doxorubicin (NSC123127), gemcitabine (NSC613327), 5-fluorouracil (NSC19893), paclitaxel (NSC125973), vemurafenib (NSC761431), MSA-2 (NSC828583), SN-011 (NSC837082), adavosertib (NSC754352), prexasertib (NSC758257), carboplatin (NSC241240) and oxaliplatin (NSC266046), were obtained from the National Cancer Institute (NCI) Developmental Therapeutics Program Chemical Repository (21). The FDA-approved anticancer drug set is available from the Developmental Therapeutics Program at https://dtp.cancer.gov/organization/dscb/obtaining/. […] The stock solutions were prepared in dimethyl sulfoxide (DMSO, Sigma-Aldrich, St. Louis, MO, cat. D2650), except for the platinum compounds which were prepared in saline (Quality Biological, Gaithersburg, MD, cat. 114-055-101), at 800-fold the tested concentration and stored at -70 degrees C prior to their use. All drugs and investigational agents were tested over a range starting from a high concentration at or near the clinical Cmax and decreasing in half-log increments. If the clinical Cmax for an agent had not been determined, the highest concentration tested was 10 microM, except for SN-38, which was tested at a high concentration of 1 microM.
Cell Culture. All cells were maintained in an incubator at 37 degrees C and 5% CO2 with 95% humidity. The PDC lines were cultured according to standard operating procedures established by the NCI PDMR (https://pdmr.cancer.gov). Table 3 of the manuscript, lists the cell lines along with the number of the three cell types plated to form the mct-spheroids and media for tumor cell growth. After thawing, all PDC lines, except 997537-175-T-J1-PDC and 415267-285-R-J2-PDC, were cultured in Matrigel-coated flasks prepared with a working solution of 1X Ham's F-12 nutrient mix, without supplementation (Thermo Fisher Scientific, cat. 11765054), 100 U/mL penicillin-streptomycin (Thermo Fisher Scientific, cat. 15140122), and 2.5% Matrigel (Corning Inc., Corning, NY, cat. 354248) for the first three passages. The two PDC lines 997537-175-T-J1-PDC and 415267-285-R-J2-PDC were cultured on uncoated flasks. The 857933-349-R-J2-PDC line was cultured in 6C/Colon 1B media containing advanced DMEM/F-12 (Thermo Fisher Scientific, cat. 12634028), 10 mM HEPES (Thermo Fisher Scientific, cat. 15630080), 1X GlutaMAX supplement (Thermo Fisher Scientific, cat. 35050061), 0.1 mg/mL primocin (InvivoGen, San Diego, CA, cat. ant-pm-2), 10% defined fetal bovine serum, heat inactivated (HyClone Laboratories Inc., Logan, UT, cat. SH30070.03HI), 50% L-WRN conditioned media (ATCC, cat. CRL-3276), 1.25 mM N-Acetyl-L-cysteine (Sigma-Aldrich, cat. A9165), 10 mM nicotinamide (Sigma-Aldrich, cat. N0636), 1X B-27 supplement (Thermo Fisher Scientific, cat. 17504044), 1X N-2 supplement (Thermo Fisher Scientific, cat. […]

[1] = second compound 0.0316 µM, first compound 0.0316 µM
[2] = second compound 0.0316 µM, first compound 0.1 µM
[3] = second compound 0.0316 µM, first compound 0.316 µM
[4] = second compound 0.0316 µM, first compound 1 µM
[5] = second compound 0.0316 µM, first compound 3.16 µM
[6] = second compound 0.0316 µM, first compound 10 µM
[7] = second compound 0.1 µM, first compound 0.0316 µM
[8] = second compound 0.1 µM, first compound 0.1 µM
[9] = second compound 0.1 µM, first compound 0.316 µM
[10] = second compound 0.1 µM, first compound 1 µM
[11] = second compound 0.1 µM, first compound 3.16 µM
[12] = second compound 0.1 µM, first compound 10 µM
[13] = second compound 0.316 µM, first compound 0.0316 µM
[14] = second compound 0.316 µM, first compound 0.1 µM
[15] = second compound 0.316 µM, first compound 0.316 µM
[16] = second compound 0.316 µM, first compound 1 µM
[17] = second compound 0.316 µM, first compound 3.16 µM
[18] = second compound 0.316 µM, first compound 10 µM
[19] = second compound 1 µM, first compound 0.0316 µM
[20] = second compound 1 µM, first compound 0.1 µM
[21] = second compound 1 µM, first compound 0.316 µM
[22] = second compound 1 µM, first compound 1 µM
[23] = second compound 1 µM, first compound 3.16 µM
[24] = second compound 1 µM, first compound 10 µM
[25] = second compound 3.16 µM, first compound 0.0316 µM
[26] = second compound 3.16 µM, first compound 0.1 µM
[27] = second compound 3.16 µM, first compound 0.316 µM
[28] = second compound 3.16 µM, first compound 1 µM
[29] = second compound 3.16 µM, first compound 3.16 µM
[30] = second compound 3.16 µM, first compound 10 µM
[31] = second compound 10 µM, first compound 0.0316 µM
[32] = second compound 10 µM, first compound 0.1 µM
[33] = second compound 10 µM, first compound 0.316 µM
[34] = second compound 10 µM, first compound 1 µM
[35] = second compound 10 µM, first compound 3.16 µM
[36] = second compound 10 µM, first compound 10 µM
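Also: spheroids exposed to drugs for seven days before viability read.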
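For viability, T/C in this document: 100% = DMSO vehicle control wells.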

COc1ccc([C@@H](O)c2cc(-c3ncnc4cc(N5CCOCC5)ccc34)c(F)cc2Cl)nn1 + Nc1ccc(C#CCN(C(=O)Cc2ncc(C(F)(F)F)cc2C(F)(F)F)c2ccc(F)cc2)nn1
IC50 (second compound 0.0316 µM): 6.57 µM
IC50 (second compound 0.1 µM): 5.84 µM
IC50 (second compound 0.316 µM): 5.43 µM
IC50 (second compound 1 µM): 5.24 µM
IC50 (second compound 3.16 µM): 3.68 µM
IC50 (second compound 10 µM): 2.04 µM
viability, T/C [1]: 87.1%
viability, T/C [2]: 81.3%
viability, T/C [3]: 98.4%
viability, T/C [4]: 102%
viability, T/C [5]: 59.2%
viability, T/C [6]: 44.7%
viability, T/C [7]: 120%
viability, T/C [8]: 98.5%
viability, T/C [9]: 105%
viability, T/C [10]: 109%
viability, T/C [11]: 73.7%
viability, T/C [12]: 29.4%
viability, T/C [13]: 106%
viability, T/C [14]: 106%
viability, T/C [15]: 110%
viability, T/C [16]: 84.9%
viability, T/C [17]: 74.8%
viability, T/C [18]: 25%
viability, T/C [19]: 118%
viability, T/C [20]: 96.6%
viability, T/C [21]: 106%
viability, T/C [22]: 82.3%
viability, T/C [23]: 70.1%
viability, T/C [24]: 28.5%
viability, T/C [25]: 109%
viability, T/C [26]: 98.9%
viability, T/C [27]: 96.5%
viability, T/C [28]: 80.5%
viability, T/C [29]: 52.1%
viability, T/C [30]: 29.6%
viability, T/C [31]: 81.1%
viability, T/C [32]: 83.6%
viability, T/C [33]: 118%
viability, T/C [34]: 60.5%
viability, T/C [35]: 54%
viability, T/C [36]: 33.1%

O=c1[nH]cc(F)c(=O)[nH]1 + Cc1cccc(N(C)C(=O)C2C(O)CCN2c2nc(C)cc(C(F)(F)F)c2C#N)c1
IC50 (second compound 0.0316 µM): > 10 µM
IC50 (second compound 0.1 µM): > 10 µM
IC50 (second compound 0.316 µM): > 10 µM
IC50 (second compound 1 µM): > 10 µM
IC50 (second compound 3.16 µM): > 10 µM
IC50 (second compound 10 µM): > 10 µM
viability, T/C [1]: 131%
viability, T/C [2]: 113%
viability, T/C [3]: 94.2%
viability, T/C [4]: 84%
viability, T/C [5]: 74.2%
viability, T/C [6]: 56.1%
viability, T/C [7]: 106%
viability, T/C [8]: 127%
viability, T/C [9]: 93%
viability, T/C [10]: 76.7%
viability, T/C [11]: 67.4%
viability, T/C [12]: 67.7%
viability, T/C [13]: 84%
viability, T/C [14]: 122%
viability, T/C [15]: 124%
viability, T/C [16]: 82.4%
viability, T/C [17]: 78%
viability, T/C [18]: 68.2%
viability, T/C [19]: 110%
viability, T/C [20]: 94.9%
viability, T/C [21]: 122%
viability, T/C [22]: 91.7%
viability, T/C [23]: 73.7%
viability, T/C [24]: 64%
viability, T/C [25]: 120%
viability, T/C [26]: 126%
viability, T/C [27]: 97.5%
viability, T/C [28]: 78.3%
viability, T/C [29]: 65.3%
viability, T/C [30]: 67.2%
viability, T/C [31]: 99.1%
viability, T/C [32]: 142%
viability, T/C [33]: 87.1%
viability, T/C [34]: 95%
viability, T/C [35]: 68%
viability, T/C [36]: 65.9%
